Columns and labels:
Assay type in all cases: in vivo, male Wistar rats
DEN-induced HCC [1] = test: Liver enzymes (ALT, AST) in serum of DEN-induced HCC rats, colorimetric assay
Procedure: (§1) In this study, 4 weeks old male Wistar rats were used. The rats were randomly divided into two groups; Control group (n=8) which received 1× PBS via intraperitoneal (i.p.) injection; Experimental group which were injected with DEN at 50 mg/kg b. wt. (Sigma Aldrich, USA) dissolved in PBS once a week for 16 weeks via i.p. This HCC induction protocol was modified from the protocol described by (DePeralta et al., 2016; Schiffer et al., 2005).
(§2) All drugs were orally administered with intragastric (gavage) tube. Doses and route of administration followed what was been previously reported in the literature.
(§3) For the HCC+sorafenib group, sorafenib (Carbosynth Limited) was administered at a dose of 10 mg/kg b.wt. […] A 0.3% solution of DMSO was used to dissolve the sorafenib. […] At the end of the experimental period and after a 24-hour post last drug administration, animals were euthanized using Diethyl ether and sacrificed and dissected under controlled conditions. Blood and liver tissue samples were collected and stored either at room temperature in buffered formalin for histological analysis or at −80 C in PBS for biochemical and immunoblotting analyses.

DEN-induced HCC [2] = test: Macroscopic appearance of liver and number of lesions/nodules in DEN-induced HCC rats
Procedure: as §1, §2, §3

DEN-induced HCC [3] = test: Histopathological evaluation of liver (H&E) in DEN-induced HCC rats; conditions: HCC groups (FIG. 10)
Procedure: as §1, §2, §3

reticulin network = test: Reticulin staining of liver sections in DEN-induced HCC rats; conditions: in comparison to HCC groups (FIG. 5)
Procedure: as §1, §2, §3

PCNA = test: Western blot of PCNA in livers of DEN-induced HCC rats; conditions: liver, versus HCC; P<0.01 (FIG. 6)
Procedure: as §1, §2
For the HCC+sorafenib group, sorafenib (Carbosynth Limited) was administered at a dose of 10 mg/kg b.wt. […]
Liver tissue samples (10 mg) were homogenized in cold RIPA buffer (Sigma Aldrich, USA) 2 μl of protease inhibitor and of phosphatases inhibitor were added to the homogenizing buffer (Sigma Aldrich, USA). Protein concentration of each liver sample was determined using the Bradford method (Bio-Rad, Hercules, Calif.) with the Promega GloMax Discover. […] Variations of gel percentages were used according to the size of protein to be determined. […] Protein bands were then detected using a chemiluminescence solution known as WesternSure PREMIUM, the signal was detected and visualized using the Bio-Rad ChemiDoc XRS+ System. The intensity of the band was measured using the ImageJ software. […]

[4] = tested on: intrinsic apoptotic pathway; test: Western blot of intrinsic apoptotic pathway proteins (Bax, Bcl-2, PARP, pro-caspase-3, pro-caspase-9) in livers of DEN-induced HCC rats
Procedure: as §1, §2, §3
Liver tissue samples (10 mg) were homogenized in cold RIPA buffer (Sigma Aldrich, USA) 2 μl of protease inhibitor and of phosphatases inhibitor were added to the homogenizing buffer (Sigma Aldrich, USA). Protein concentration of each liver sample was determined using the Bradford method (Bio-Rad, Hercules, Calif.) with the Promega GloMax Discover. In order to blot the proteins into the gel, 2-mercaptoethanol, […], was added to the cell lysate produced from the homogenization of liver tissues. The mixture of the lysate and loading dye was then loaded into the SDS-PAGE gel. Variations of gel percentages were used according to the size of protein to be determined. Following the separation of the protein content of each sample on the SDS-PAGE gel, proteins were transferred onto a PVDF membrane and blocked in 5% BSA in TBST or a 5% (w/v) non-fat milk at room temperature for one hour. After the blocking stage, the membranes were incubated with primary anti-body overnight at 4° C. In this study, the primary antibodies selected here were anti-Proliferating Cell Nuclear Antigen (PCNA), anti-caspase-3 (Cell Signaling Technology Inc.), anti-caspase-9 (Nous Biologicals), anti-PolyADP-ribose Polymerase (PARP), anti-Bcl-2, anti-Bax (Santa Cruz). Following the overnight incubation with primary antibodies, the membranes were extensively washed with TBST and re-probed with secondary antibodies including anti-rabbit IgG (Cell Signaling Technology, Inc, MA, USA) and anti-mouse IgG, and conjugated horseradish peroxidase for 1 hour at room temperature. Protein bands were then detected using a chemiluminescence solution known as WesternSure PREMIUM, the signal was detected and visualized using the Bio-Rad ChemiDoc XRS+ System. The intensity of the band was measured using the ImageJ software. The internal control used was total protein which was stained using the SYPRO Ruby protein gel stain following the protocol instructed by the manufacturer (Thermo Fisher Scientific).
Housekeeping proteins are used as the controls for every western blot analysis. Because of their stable expression in tissues, they are great indicators to validate the integrity of the protein samples loaded into the SDS-PAGE gel, therefore accurately reflecting the amount of proteins in the samples. Current research has investigated the ability of these housekeeping proteins to remain stable under different experimental conditions. […] Therefore, an alternative approach was used to resolve this issue. Total protein was utilized as the loading control; this protocol measures the whole protein content of a sample rather than relying on one protein.

[5] = liver, compared to the HCC group alone, P<0.01 (FIG. 8)
[6] = liver, compared to the HCC group, P<0.05 (FIG. 9)

With `CC(/C=C/C=C(\C)C(=O)O[C@@H]1O[C@H](CO[C@@H]2O[C@H](CO)[C@@H](O)[C@H](O)[C@H]2O)[C@@H](O)[C@H](O)[C@H]1O)=C\C=C\C=C(C)\C=C\C=C(/C)C(=O)O[C@@H]1O[C@H](CO[C@@H]2O[C@H](CO)[C@@H](O)[C@H](O)[C@H]2O)[C@@H](O)[C@H](O)[C@H]1O` [crocin, Crocetin di-gentiobiose ester] the “levels of ALT and AST in the blood” value (DEN-induced HCC [1]; in comparison to DEN-induced HCC rats (FIG. 11)) was “great impact on lowering the levels of both ALT and AST”, the “level of ALT in serum” value (DEN-induced HCC [1]; in comparison to the HCC group, crocin 200 mg/kg b.wt., sorafenib 10 mg/kg b.wt., oral gavage 5 times a week, week 17 to 19, P<0.01) was “decrease in the level of ALT” and the “level of ALT in serum” value (DEN-induced HCC [1]; in comparison to the sorafenib alone group (HCC+sorafenib), P<0.05) was “significantly decreased levels of ALT”. The “number of liver lesions” value (DEN-induced HCC [2]; in comparison to the HCC animals (FIG. 4)) was “reduced the number of lesions”, the “number of liver lesions” value (DEN-induced HCC [2]; in comparison to the livers of sorafenib alone (HCC+SB) (FIG. 4)) was “significantly lower numbers of lesions” and the “architecture of the liver (H&E histology)” value (DEN-induced HCC [3]) was “restored to a great degree the normal architecture of the liver”. For the same compound, the “reticulin network / fiber breakage” value (reticulin network) was “recovered the damage done by the DEN-induction of cancer”, the “expression of PCNA” value (PCNA) was “significantly lowered the expression of PCNA” and the “expression of PARP” value ([4]; liver, compared to the HCC group alone, P<0.001 (FIG. 8)) was “decreased”. The “expression of pro-caspase-3” value [4, 5] was “decreased”, the “expression of pro-caspase-9” value [4, 5] was “decreased” and the “expression of anti-apoptotic protein Bcl-2” value [4, 6] was “significantly (P<0.05) decreased”. For the same compound, the “expression of pro-apoptotic protein Bax” value [4, 6] was “increasing the expression” and the “activation of the intrinsic apoptotic pathway” value ([4]; western blot analysis (FIGS. 7, 8, 9)) was “triggered the activation of the intrinsic apoptotic pathway”.

Source: US10933076B2, “Crocin-sorafenib combination therapy for liver cancer” (United Arab Emirates University, priority 2019, dated 2021)
